# Data taken from the NIST ThermoML archive (doi:10.1016/j.fluid.2011.09.011).
# Numbers after ± are expanded uncertainties.
# Settings: 298.15 K; 101.33 kPa; Liquid; Vibrating tube method
row,Structure (SMILES),mass density [kg/m3]
1,CCCCn1cc[n+](C)c1.F[B-](F)(F)F [1-butyl-3-methylimidazolium tetrafluoroborate],1203.76 ± 7.9
2,CCOS(=O)(=O)[O-].CCn1cc[n+](C)c1 [1-ethyl-3-methylimidazolium ethyl sulfate],1236.55 ± 8.3
